Values of other authors in patent publication US9066956B2, “Vaginal ring comprising DHEA or DHEA sulfate and optionally a release-modulating agent of the active principle, useful to increase the ovarian reserve in women and to relieve symptoms associated with menopause” (Universidad de Chile, priority 2011, dated 2015).
Where two headings read alike, the source gives them in different places.

Columns and labels:
[1] = test system: women
[2] = test system: infertile women with diminished ovarian reserve; conditions: versus national U.S. IVF rates 2004

Compound	clinical pregnancies ([1]; oral DHEA 75 mg daily up to four months before IVF, control group 11%)	rate of spontaneous abortions ([1]; oral DHEA 75 mg daily, control group 36%)	increase of clinical pregnancy ([1]; oral DHEA versus control group)	DHEA metabolized back to DHEA-S (by sulfatase hydroxysteroid)	Reduction of spontaneous abortions ([2]; first fertility center (U.S.))	Reduction of spontaneous abortions ([2]; second fertility center (Canada))	daily production of DHEA-S converted to DHEA (women)
C[C@]12CC[C@H](O)CC1=CC[C@@H]1[C@@H]2CC[C@]2(C)C(=O)CC[C@@H]12 [DHEA, dehydroepiandrosterone]	28%	20%	at least 150%	13%	15.0%	15.2%	
dehydroepiandrosterone sulphate [DHEA-S]							64%
